Data from paper PMC13083723 (Patterns, 2026).

Tested on: Vero-E6 cells
Experiment: cells
Type: cell-based
Settings: Chlorocebus sabaeus, Vero C1008, 24 h, read-out: PL_Result

| SMILES | activation at 10 µM [%] |
| --- | --- |
| Cc1nnc(C(=O)NC(C)(C)c2nc(C(=O)NCc3ccc(F)cc3)c(O)c(=O)n2C)o1 [SPE_K05658747] | -12.8 |
| CCCCCCCCCCCCOS(=O)(=O)O [SPE_K05680146] | 12.1 |
| Cc1cccc(C)c1NC(=O)c1ccccc1C(=O)O [SPE_K05724540] | -3.96 |
| COC(F)(F)C(Cl)Cl [SPE_K06152156] | -2.25 |
| CCN(CC)CCOCCOC(=O)C1(c2ccccc2)CCCC1 [SPE_K06181161] | 11.3 |
| CC[C@@H]([C@H](C)O)n1ncn(-c2ccc(N3CCN(c4ccc(OC[C@@H]5CO[C@@](Cn6cncn6)(c6ccc(F)cc6F)C5)cc4)CC3)cc2)c1=O [SPE_K06222852] | -4.55 |
| Cc1cc(/C=C/C#N)cc(C)c1Nc1ccnc(Nc2ccc(C#N)cc2)n1 [SPE_K06240250] | -8.07 |
| C[C@@H](c1ncncc1F)[C@](O)(Cn1cncn1)c1ccc(F)cc1F [SPE_K06557128] | -4.59 |
| NC(=O)C[C@H](N)C(=O)O [SPE_K06665116] | -6.33 |
| COc1ccc(-c2cc(=O)c3c(OC)c(OC)c(OC)c(OC)c3o2)cc1OC [SPE_K06753942] | 17.9 |
| CC(C)Cn1cnc2c1c(=O)n(C)c(=O)n2C [SPE_K06762493] | -8.79 |
| O=C(Nc1cc(Cl)cc(Cl)c1O)c1c(O)c(Cl)cc(Cl)c1Cl [SPE_K07283971] | -4.07 |
| Cc1cc(NCCO)nc(-c2ccc(Br)cc2)n1 [SPE_K07656463] | -1.9 |
| CC[C@H](CO)Nc1nc(NCc2ccccc2)c2ncn(C(C)C)c2n1 [SPE_K07691486] | 5.8 |
| CC(C)(C)OC(=O)N[C@H]1CCCCC/C=C\[C@@H]2C[C@@]2(C(=O)NS(=O)(=O)C2CC2)NC(=O)[C@@H]2C[C@@H](OC(=O)N3Cc4cccc(F)c4C3)CN2C1=O [SPE_K08111240] | -7.46 |
| Cc1cccc2c1CC[C@H](CN1CCC(c3c(Cl)cccc3Cl)CC1)C[C@@H]2O [SPE_K08333979] | -2.39 |
| O=C(O)c1cn(-c2ccc(F)cc2)c2cc(N3CCNCC3)c(F)cc2c1=O [SPE_K08525451] | -3.13 |

| SMILES | activation at 10 µM [%] |
| --- | --- |
| O=C(O)CCn1c2c(c3ccccc31)C[C@H](NS(=O)(=O)c1ccc(F)cc1)CC2 [SPE_K08586861] | -12 |
| Cc1ccc(-n2sc(=O)n(Cc3ccc(F)cc3)c2=O)cc1 [SPE_K08893438] | 8.86 |
| CC(C)[C@@H](C)/C=C/[C@@H](C)[C@H]1CC[C@H]2C3=CC=C4C[C@@H](O)CC[C@]4(C)[C@H]3CC[C@]12C [SPE_K09161066] | -4.6 |
| Oc1c(I)cc(Cl)c2cccnc12 [SPE_K09255212] | 3.03 |
| COCC(=O)O[C@]1(CCN(C)CCCc2nc3ccccc3[nH]2)CCc2cc(F)ccc2[C@@H]1C(C)C [SPE_K09549677] | 97.4 |
| CCc1c(C(=O)C(N)=O)c2c(OCC(=O)O)cccc2n1Cc1ccccc1 [SPE_K09711437] | -15.1 |
| N[C@H](CSC(c1ccccc1)(c1ccccc1)c1ccccc1)C(=O)O [SPE_K09774593] | -6.1 |
| COC(=O)c1ccccc1O [SPE_K10103010] | 2.4 |
| O=C(O)CCCCC(=O)O [SPE_K10656395] | 4.52 |
| CCOC(=O)Nc1ccc2c(c1)N(C(=O)CCN(CC)CC)c1ccccc1S2 [SPE_K10667240] | -10.8 |
| Nc1ccc(S(=O)(=O)Nc2ccnn2-c2ccccc2)cc1 [SPE_K10671814] | -1.85 |
| N#Cc1ccc(Cn2cncc2CN2CCN(c3cccc(Cl)c3)C(=O)C2)cc1 [SPE_K10958118] | -5.79 |
| CN1CCN(c2nc3ccccc3nc2Cl)CC1 [SPE_K11046126] | -4.46 |
| CCc1cc2c(cc1N1CCC(N3CCOCC3)CC1)C(C)(C)c1[nH]c3cc(C#N)ccc3c1C2=O [SPE_K11267252] | 0.894 |
| CCc1cc2c(c(CC)n1)CCC(=O)N2Cc1ccc(-c2ccccc2-c2nnn[nH]2)cc1 [SPE_K11373525] | -4.91 |
| Nc1nc(Nc2ccc(S(N)(=O)=O)cc2)nn1C(=O)c1c(F)cccc1F [SPE_K11636097] | -9.77 |
